ChEMBL document CHEMBL3351983, “Synthesis and biological evaluation of substituted 3-anilino-quinolin-2(1H)-ones as PDK1 inhibitors” (Bioorg Med Chem, 2014)

The compounds below were run against T1, 3-phosphoinositide-dependent protein kinase 1 (Homo sapiens, UniProt O15530) (assay: Inhibition of PDK1 (unknown origin) using PDKtide substrate and [gamma-32P]ATP by scintillation counting method).
T1 sequence (O15530 whole entry): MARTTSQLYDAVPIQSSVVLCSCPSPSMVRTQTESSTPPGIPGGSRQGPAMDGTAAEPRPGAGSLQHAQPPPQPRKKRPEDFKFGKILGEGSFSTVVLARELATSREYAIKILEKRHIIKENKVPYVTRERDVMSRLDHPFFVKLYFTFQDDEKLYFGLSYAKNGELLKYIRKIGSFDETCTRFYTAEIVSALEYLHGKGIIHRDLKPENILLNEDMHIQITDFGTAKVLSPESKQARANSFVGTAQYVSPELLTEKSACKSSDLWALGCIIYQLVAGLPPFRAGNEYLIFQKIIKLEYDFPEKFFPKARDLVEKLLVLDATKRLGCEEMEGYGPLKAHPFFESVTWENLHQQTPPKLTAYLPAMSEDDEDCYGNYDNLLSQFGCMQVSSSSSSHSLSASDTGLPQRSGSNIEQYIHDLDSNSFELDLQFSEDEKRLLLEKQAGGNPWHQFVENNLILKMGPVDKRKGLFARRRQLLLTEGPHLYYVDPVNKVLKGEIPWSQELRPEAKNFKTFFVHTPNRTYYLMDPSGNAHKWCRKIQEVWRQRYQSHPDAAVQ

`CN[C@@H]1CCc2ccccc21` was tested, and the IC50 was 200 nM.

What follows are compounds tested against T2, 3-phosphoinositide-dependent protein kinase 1 (Homo sapiens) (UniProt O15530) (assay: Inhibition of PDK1 (unknown origin) at 10 uM using PDKtide substrate and [gamma-32P]ATP by scintillation counting method).
T2 sequence (whole entry): T1 sequence (O15530 whole entry)

In order of rising inhibition:
1. O=C(Nc1ccc2[nH]c(=O)c(Nc3cccc(-c4nnn[nH]4)c3)cc2c1)N1CCCC1  14%
2. CC(=O)Nc1cccc(Nc2cc3cc(NC(N)=O)ccc3[nH]c2=O)c1  20%
3. CCOc1cccc(Nc2cc3cc(NC(=O)N4CCCC4)ccc3[nH]c2=O)c1  23%
4. COc1cccc(-c2cccc(Nc3cc4cc(NC(=O)N5CCCC5)ccc4[nH]c3=O)c2)c1  29%
5. N#Cc1cccc(Nc2cc3cc(NC(=O)N4CCCC4)ccc3[nH]c2=O)c1  30%
6. O=C(Cc1ccc2[nH]c(=O)c(Nc3ccccc3)cc2c1)NCCN1CCCCC1  36%
7. NC(=O)Nc1ccc2[nH]c(=O)c(Nc3cc(CC(=O)NCCN4CCCCC4)cc(NC(=O)N4CCCC4)c3)cc2c1  40%
8. NC(=O)Nc1ccc2[nH]c(=O)c(Nc3cccc(NC(=O)N4CCCC4)c3)cc2c1  40%
